Patent US20160318987A1 (MEDIMMUNE LIMITED, priority 2013, published 2016)
Where a SMILES comes first, the peptide text is derived from it. [ ]: non-standard residue; d: D form. αMeF = C[C@](N)(Cc1ccccc1)C(=O)O; Aib = CC(C)(N)C(=O)O

Columns and labels:
hGIP-R = molecular target: T1, hGIP-R (Homo sapiens, UniProt P48546); assay: cAMP functional assay, cells expressing human GIP receptor (primary assay); format: cell-based; conditions: n = 2
T1 construct: expressed in transfected cells
T1 sequence (P48546 22-466): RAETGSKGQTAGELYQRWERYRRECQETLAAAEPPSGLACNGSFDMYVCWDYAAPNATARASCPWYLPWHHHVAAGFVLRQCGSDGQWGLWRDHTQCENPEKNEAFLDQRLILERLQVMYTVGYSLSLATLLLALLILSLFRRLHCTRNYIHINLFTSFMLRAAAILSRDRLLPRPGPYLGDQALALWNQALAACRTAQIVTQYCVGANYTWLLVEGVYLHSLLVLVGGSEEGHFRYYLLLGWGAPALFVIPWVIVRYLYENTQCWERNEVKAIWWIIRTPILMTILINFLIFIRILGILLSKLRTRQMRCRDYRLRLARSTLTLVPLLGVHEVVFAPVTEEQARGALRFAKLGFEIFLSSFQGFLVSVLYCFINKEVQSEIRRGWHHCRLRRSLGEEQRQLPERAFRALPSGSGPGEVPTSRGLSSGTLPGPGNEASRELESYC

hGLP-1R = molecular target: T2, hGLP-1R (Homo sapiens, UniProt P43220); assay: cAMP functional assay, cells expressing human GLP-1 receptor (primary assay); format: cell-based; conditions: n = 2
T2 construct: expressed in transfected cells
T2 sequence (P43220 24-463): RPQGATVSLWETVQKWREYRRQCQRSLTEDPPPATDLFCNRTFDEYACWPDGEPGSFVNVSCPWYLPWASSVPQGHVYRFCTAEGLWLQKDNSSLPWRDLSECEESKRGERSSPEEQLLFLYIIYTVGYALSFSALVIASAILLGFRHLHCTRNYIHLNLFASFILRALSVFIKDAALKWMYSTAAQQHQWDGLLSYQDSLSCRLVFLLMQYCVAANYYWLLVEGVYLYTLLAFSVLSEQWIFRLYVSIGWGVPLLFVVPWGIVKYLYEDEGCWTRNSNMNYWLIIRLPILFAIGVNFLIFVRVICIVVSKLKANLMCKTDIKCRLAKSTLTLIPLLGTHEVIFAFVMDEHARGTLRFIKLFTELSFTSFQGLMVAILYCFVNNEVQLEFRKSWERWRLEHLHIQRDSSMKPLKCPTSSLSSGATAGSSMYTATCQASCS

EC50 (hGIP-R) [nM]	EC50 (hGLP-1R) [nM]	Compound
102	0.0267	CC[C@H](C)[C@H](NC(=O)[C@](C)(Cc1ccccc1)NC(=O)[C@H](CCC(=O)O)NC(=O)[C@H](CCCCN)NC(=O)[C@H](C)NC(=O)[C@H](C)NC(=O)[C@H](CCC(N)=O)NC(=O)CNC(=O)[C@H](CCC(=O)O)NC(=O)[C@H](CC(C)C)NC(=O)[C@H](Cc1ccc(O)cc1)NC(=O)[C@H](CO)NC(=O)[C@H](CO)NC(=O)[C@@H](NC(=O)[C@H](CC(=O)O)NC(=O)[C@H](CO)NC(=O)[C@@H](NC(=O)[C@](C)(Cc1ccccc1)NC(=O)[C@H](CO)NC(=O)CNC(=O)[C@H](CCC(=O)O)NC(=O)C(C)(C)NC(=O)[C@@H](N)Cc1c[nH]cn1)[C@@H](C)O)C(C)C)C(=O)N[C@@H](C)C(=O)N[C@@](C)(Cc1ccccc1)C(=O)N[C@@H](CC(C)C)C(=O)N[C@H](C(=O)N[C@@H](CCCCN)C(=O)NCC(=O)N[C@@H](CCCNC(=N)N)C(N)=O)C(C)C [SEQ ID NO: 36, H-(Aib)^2-EG-(S)^5-(α-MeF)^6-TSDV^10 SSYLE^15 GQAAK^20 E-(α-MeF)^22-IA-(α-MeF)^25 LVKGR^30] (H-H[Aib]EGS[αMeF]TSDVSSYLEGQAAKE[αMeF]IA[αMeF]LVKGR-NH2)
102	0.191	CC[C@H](C)[C@H](NC(=O)[C@](C)(Cc1ccccc1)NC(=O)[C@H](CCC(=O)O)NC(=O)[C@H](CCCCN)NC(=O)[C@H](C)NC(=O)[C@H](C)NC(=O)[C@H](CCC(N)=O)NC(=O)CNC(=O)[C@H](CCC(=O)O)NC(=O)[C@H](CC(C)C)NC(=O)[C@](C)(Cc1ccccc1)NC(=O)[C@H](CO)NC(=O)[C@H](CO)NC(=O)[C@@H](NC(=O)[C@H](CC(=O)O)NC(=O)[C@H](CO)NC(=O)[C@@H](NC(=O)[C@H](Cc1ccccc1)NC(=O)[C@H](CO)NC(=O)CNC(=O)[C@H](CCC(=O)O)NC(=O)C(C)(C)NC(=O)[C@@H](N)Cc1c[nH]cn1)[C@@H](C)O)C(C)C)C(=O)N[C@@H](C)C(=O)N[C@@](C)(Cc1ccccc1)C(=O)N[C@@H](CC(C)C)C(=O)N[C@H](C(=O)N[C@@H](CCCCN)C(=O)NCC(=O)N[C@@H](CCCNC(=N)N)C(N)=O)C(C)C [SEQ ID NO: 37, H-(Aib)^2-EG-(S)^5-FTSDV^10 SS-(α-MeF)^13-LE^15 GQAAK^20 E-(α-MeF)^22-IA-(α-MeF)^25 LVKGR^30] (H-H[Aib]EGSFTSDVSS[αMeF]LEGQAAKE[αMeF]IA[αMeF]LVKGR-NH2)
102	0.0322	CC[C@H](C)[C@H](NC(=O)[C@](C)(Cc1ccccc1)NC(=O)[C@H](CCC(=O)O)NC(=O)[C@H](CCCCN)NC(=O)[C@H](C)NC(=O)[C@H](C)NC(=O)[C@H](CCC(N)=O)NC(=O)CNC(=O)[C@H](CCC(=O)O)NC(=O)[C@H](CC(C)C)NC(=O)[C@](C)(Cc1ccccc1)NC(=O)[C@H](CO)NC(=O)[C@H](CO)NC(=O)[C@@H](NC(=O)[C@H](CC(=O)O)NC(=O)[C@H](CO)NC(=O)[C@@H](NC(=O)[C@](C)(Cc1ccccc1)NC(=O)[C@H](CO)NC(=O)CNC(=O)[C@H](CCC(=O)O)NC(=O)C(C)(C)NC(=O)[C@@H](N)Cc1c[nH]cn1)[C@@H](C)O)C(C)C)C(=O)N[C@@H](C)C(=O)N[C@@](C)(Cc1ccccc1)C(=O)N[C@@H](CC(C)C)C(=O)N[C@H](C(=O)N[C@@H](CCCCN)C(=O)NCC(=O)NCC(N)=O)C(C)C [SEQ ID NO: 39, H-(Aib)^2-EG-(S)^5-(α-MeF)^6-TSDV^10 SS-(α-MeF)^13-LE^15 GQAAK^20 E-(α-MeF)^22-IA-(α-MeF)^25 LVKG-(G)^30] (H-H[Aib]EGS[αMeF]TSDVSS[αMeF]LEGQAAKE[αMeF]IA[αMeF]LVKGG-NH2)
102	0.254	CC[C@H](C)[C@H](NC(=O)[C@](C)(Cc1ccccc1)NC(=O)[C@H](CCC(=O)O)NC(=O)[C@H](CCCCN)NC(=O)[C@H](C)NC(=O)[C@H](C)NC(=O)[C@H](CCC(N)=O)NC(=O)CNC(=O)[C@H](CCC(=O)O)NC(=O)[C@H](CC(C)C)NC(=O)[C@](C)(Cc1ccccc1)NC(=O)[C@H](CO)NC(=O)[C@H](CO)NC(=O)[C@@H](NC(=O)[C@H](CC(=O)O)NC(=O)[C@H](CO)NC(=O)[C@@H](NC(=O)[C@](C)(Cc1ccccc1)NC(=O)[C@H](CO)NC(=O)CNC(=O)[C@H](CCC(=O)O)NC(=O)C(C)(C)NC(=O)[C@@H](N)Cc1c[nH]cn1)[C@@H](C)O)C(C)C)C(=O)N[C@@H](C)C(=O)N[C@@](C)(Cc1ccccc1)C(=O)N[C@@H](CC(C)C)C(=O)NC(C)(C)C(=O)N[C@@H](CCCCN)C(=O)NCC(=O)N[C@@H](CCCNC(=N)N)C(N)=O [SEQ ID NO: 40, H-(Aib)^2-EG-(S)^5-(α-MeF)^6-TSDV^10 SS-(α-MeF)^13-LE^15 GQAAK^20 E-(α-MeF)^22-IA-(α-MeF)^25 L-(Aib)27-KGR^30] (H-H[Aib]EGS[αMeF]TSDVSS[αMeF]LEGQAAKE[αMeF]IA[αMeF]L[Aib]KGR-NH2)
102	0.0234	CC[C@H](C)[C@H](NC(=O)[C@](C)(Cc1ccccc1)NC(=O)[C@H](CCC(=O)O)NC(=O)[C@H](CCCCN)NC(=O)[C@H](C)NC(=O)[C@H](C)NC(=O)[C@H](CCC(N)=O)NC(=O)CNC(=O)[C@H](CCC(=O)O)NC(=O)[C@H](CC(C)C)NC(=O)[C@](C)(Cc1ccccc1)NC(=O)[C@H](CO)NC(=O)[C@H](CO)NC(=O)[C@@H](NC(=O)[C@H](CC(=O)O)NC(=O)[C@H](CO)NC(=O)[C@@H](NC(=O)[C@](C)(Cc1ccccc1)NC(=O)[C@H](CO)NC(=O)CNC(=O)[C@H](CCC(=O)O)NC(=O)C(C)(C)NC(=O)[C@@H](N)Cc1c[nH]cn1)[C@@H](C)O)C(C)C)C(=O)N[C@@H](C)C(=O)N[C@@](C)(Cc1ccccc1)C(=O)N[C@@H](CC(C)C)C(=O)N[C@H](C(=O)N[C@@H](CCCCN)C(=O)NC(C)(C)C(=O)N[C@@H](CCCNC(=N)N)C(N)=O)C(C)C [SEQ ID NO: 42, H-(Aib)^2-EG-(S)^5-(α-MeF)^6-TSDV^10 SS-(α-MeF)^13-LE^15 GQAAK^20 E-(α-MeF)^22-IA-(α-MeF)^25 LVK-(Aib)^29-R^30] (H-H[Aib]EGS[αMeF]TSDVSS[αMeF]LEGQAAKE[αMeF]IA[αMeF]LVK[Aib]R-NH2)
102	0.0707	CC[C@H](C)[C@H](NC(=O)[C@](C)(Cc1ccccc1)NC(=O)[C@H](CCC(=O)O)NC(=O)[C@H](CCCCN)NC(=O)[C@H](C)NC(=O)[C@H](C)NC(=O)[C@H](CCC(N)=O)NC(=O)CNC(=O)[C@H](CCC(=O)O)NC(=O)[C@H](CC(C)C)NC(=O)[C@](C)(Cc1ccccc1)NC(=O)[C@H](CO)NC(=O)[C@H](CO)NC(=O)[C@@H](NC(=O)[C@H](CC(=O)O)NC(=O)[C@H](CO)NC(=O)[C@@H](NC(=O)[C@](C)(Cc1ccccc1)NC(=O)[C@H](CO)NC(=O)CNC(=O)[C@H](CCC(=O)O)NC(=O)C(C)(C)NC(=O)[C@@H](N)Cc1c[nH]cn1)[C@@H](C)O)C(C)C)C(=O)N[C@@H](C)C(=O)N[C@@](C)(Cc1ccccc1)C(=O)N[C@@H](CC(C)C)C(=O)NC(C)(C)C(=O)N[C@@H](CCCCN)C(=O)NC(C)(C)C(=O)N[C@@H](CCCNC(=N)N)C(N)=O [SEQ ID NO: 43, H-(Aib)^2-EG-(S)^5-(α-MeF)^6-TSDV^10 SS-(α-MeF)^13-LE^15 GQAAK^20 E-(α-MeF)^22-IA-(α-MeF)^25 L-(Aib)^27-K-(Aib)^29-R^30] (H-H[Aib]EGS[αMeF]TSDVSS[αMeF]LEGQAAKE[αMeF]IA[αMeF]L[Aib]K[Aib]R-NH2)
